Test [1] deals with A549. Put plainly: Cytotoxicity against human A549 cells assessed as reduction in cell viability by MTT assay. It is filed as functional, cell-based.
Test [2] has as its system HeLa. Description: Cytotoxicity against human HeLa cells assessed as reduction in cell viability by MTT assay. The class given is functional, cell-based.
In test [3] the test system is HepG2. Put plainly: Cytotoxicity against human HepG2 cells assessed as reduction in cell viability by MTT assay. It is filed as functional, cell-based.
Test [4] deals with SMMC-7721. Put plainly: Cytotoxicity against human SMMC-7721 cells assessed as reduction in cell viability by MTT assay. It is filed as functional, cell-based.
The subject of test [5] is HeLa. Put plainly: Inhibition of colony formation in human HeLa cells assessed as reduction in cell colonies at 4 uM after 10 days by crystal violet staining based assay relative to control. It is filed as functional. The conditions noted are these: time 10.0 day, DDE = dose-dependent effect.
Test [6] concerns HeLa. Put plainly: Induction of cell cycle arrest in human HeLa cells assessed as accumulation at G2 phase at 1 to 5 uM after 24 hrs by Propidium iodide staining based flow cytometric analysis (reference value: 23%). The class given is functional. The conditions noted are these: dose 1-5 µM.
For test [7], the system named is HeLa. Description: Induction of apoptosis in human HeLa cells assessed as increase in cytochrome C protein expression at 1 to 10 uM after 24 hrs by Western blot analysis. The conditions noted are these: dose 1-10 µM, DDE = dose-dependent effect. The class given is functional, cell-based.
Test [8] has as its system HeLa. Put plainly: Induction of apoptosis in human HeLa cells assessed as increase in late apoptotic cells at 1 to 10 uM after 24 hrs by Annexin V staining based flow cytometric analysis. The class given is functional, cell-based. The conditions noted are these: dose 1-10 µM.
In test [9] the test system is HeLa. Put plainly: Induction of apoptosis in human HeLa cells assessed as increase in early apoptotic cells at 1 to 10 uM after 24 hrs by Annexin V staining based flow cytometric analysis. It is filed as functional, cell-based. The conditions noted are these: dose 1-10 µM.
For test [10], the system named is HeLa. Description: Induction of apoptosis in human HeLa cells assessed as increase in Bax protein expression at 1 to 10 uM after 24 hrs by Western blot analysis. The class given is functional, cell-based. Particulars: dose 1-10 µM, DDE = dose-dependent effect.
The subject of test [11] is HeLa. Description: Activation of MAPK signalling pathway in human HeLa cells assessed as increase in p38 phosphorylation level at 1 to 10 uM after 24 hrs by western blot analysis. Particulars: filed as activator, dose 1-10 µM, DDE = dose-dependent effect. It is filed as cell-based.
For test [12], the system named is HeLa. Description: Induction of apoptosis in human HeLa cells assessed as increase in p53 protein expression at 1 to 10 uM after 24 hrs by Western blot analysis. It is filed as functional, cell-based. The conditions noted are these: dose 1-10 µM, DDE = dose-dependent effect.
In test [13] the test system is HeLa. Description: Activation of MAPK signalling pathway in human HeLa cells assessed as increase in ERK phosphorylation level at 1 to 10 uM after 24 hrs by western blot analysis. The class given is cell-based. The conditions noted are these: filed as activator, dose 1-10 µM, DDE = dose-dependent effect.
In test [14] the test system is HeLa. Description: Induction of apoptosis in human HeLa cells assessed as decrease in Bcl-2 protein expression at 1 to 10 uM after 24 hrs by Western blot analysis. It is filed as functional, cell-based. Particulars: dose 1-10 µM, DDE = dose-dependent effect.
Test [15] relates to HeLa. Put plainly: Activation of MAPK signalling pathway in human HeLa cells assessed as increase in JNK phosphorylation level at 1 to 10 uM after 24 hrs by western blot analysis. The class given is cell-based. Particulars: filed as activator, dose 1-10 µM, DDE = dose-dependent effect.
Test [16] concerns HeLa. Put plainly: Induction of ROS generation in human HeLa cells at 1 to 10 uM after 24 hrs by DCFH-DA staining based fluorescence microscopic assay. The class given is functional, cell-based. Particulars: dose 1-10 µM.
The subject of test [17] is HeLa. Description: Induction of apoptosis in human HeLa cells assessed as increase in caspase 3 protein expression at 1 to 10 uM after 24 hrs by Western blot analysis. The class given is functional, cell-based. Particulars: dose 1-10 µM, DDE = dose-dependent effect.
Test [18] deals with HeLa. Put plainly: Induction of apoptosis in human HeLa cells assessed as nuclear condensation at 1 to 10 uM after 24 hrs by Hoechst 33342 staining based fluorescence microscopic assay. It is filed as functional, cell-based. The conditions noted are these: dose 1-10 µM.
Test [19] relates to HeLa. Put plainly: Induction of apoptosis in human HeLa cells assessed as increase in cleaved PARP protein expression at 1 to 10 uM after 24 hrs by Western blot analysis. The class given is functional, cell-based. Particulars: dose 1-10 µM, DDE = dose-dependent effect.
Test [20] concerns HeLa. Put plainly: Induction of mitochondrial membrane potential loss in human HeLa cells at 1 to 10 uM after 24 hrs by JC1 staining based flow cytometric analysis. The conditions noted are these: dose 1-10 µM. The class given is functional, cell-based.

Molecules are shown by their SMILES. Calls of active or inactive are those of the source. The rule behind the calls is not given here.

For `Cc1c(O)c(C)c2oc(=O)c3c(c2c1C)O[C@@]12C(=[N+]([O-])c4c1ccc1c4C=CC(C)(C)O1)C(C)(C)[C@@H]1C[C@]45CCCN4C(=O)[C@]1(NC5=O)[C@H]32`, the IC50 in [1] is 7.8 µM; in test [2], 7.9 µM; in test [3], 8.1 µM; in [4], 6.7 µM.

With `CC1(C)C=Cc2c(ccc3c4c(n(O)c23)C(C)(C)[C@@H]2C[C@]35CCCN3C(=O)[C@]23[C@H]4NC(C)(C)N3C5=O)O1`, the inhibition result in [5] was “Dde”. Also, the Activity in test [6] was 38%; in test [7] it was “Dde”; in test [10], “Dde”; in test [11], “Dde”; in test [12], “Dde”; in test [13], “Dde”. In addition, the Activity entry in test [14], in test [15], in test [17] and in [19] was “Dde” each time. For the same compound, the outcome in [8], in test [9], in [16], in test [18] and in test [20] was Active. In addition, the IC50 in test [1] was found to be 1.6 µM; in test [2] it was 1.7 µM; in test [3], 1.8 µM; in [4], 1.5 µM.

Take `CC1(C)C=Cc2c(ccc3c2[N+]([O-])=C2C(C)(C)C4C[C@]56CCCN5C(=O)C4(NC6=O)[C@@H](O)[C@@]23O)O1` (some centres undefined): the IC50 in [1], in test [2], in test [3] and in [4] was above 10 µM in each case.

In the case of `CC1(C)C=Cc2c(ccc3c4c([nH]c23)C(C)(C)[C@@H]2C[C@]35CCCN3C(=O)[C@]23[C@H]4NC(C)(C)N3C5=O)O1`, the IC50 in test [1], in [2], in test [3] and in [4] was above 10 µM in each case.

For the compound `CC(=O)O[C@H]1C(=O)[C@@]2(C)[C@H]([C@H](OC(=O)c3ccccc3)[C@]3(O)C[C@H](OC(=O)[C@H](O)[C@@H](NC(=O)c4ccccc4)c4ccccc4)C(C)=C1C3(C)C)[C@]1(OC(C)=O)CO[C@@H]1C[C@@H]2O` [PACLITAXEL], the IC50 came out at 0.05 µM in [1], 0.05 µM in test [2], 0.06 µM in test [3] and 0.07 µM in [4].

Turning to `Cc1c(O)c(C)c2oc(=O)c(C3=C4C(=[N+]([O-])c5c4ccc4c5C=CC(C)(C)O4)C(C)(C)[C@@H]4C[C@]56CCCN5C(=O)[C@]34NC6=O)c(O)c2c1C`, the IC50 in test [1], in test [2], in [3] and in [4] was above 10 µM in each case.

Consider `CC1(C)C=Cc2c(ccc3c2N2O[C@@H]4O[C@@]2(C3=O)C(C)(C)C2C[C@]35CCCN3C(=O)C24NC5=O)O1` (some centres undefined), for which the IC50 in [1], in [2], in test [3] and in [4] was above 10 µM throughout.

Source of the values: ChEMBL document CHEMBL5120769, “Sclerotiamides C-H, Notoamides from a Marine Gorgonian-Derived Fungus with Cytotoxic Activities” (J Nat Prod, 2022).
